According to patent US12122787B2, “Fused pyridone compound, and preparation method therefor and use thereof” (SHANGHAI JEMINCARE PHARMACEUTICALS CO., LTD, priority 2019, dated 2024):
Like-named read-outs stand apart in the source and are kept apart here.

Assays:
[1] = system: MIA PaCa2 cells expressing KRAS-G12C; experiment: Growth inhibition of tumor cell line expressing KRAS-G12C (Cell Titer Glo), MIA PaCa2; type: cell-based; details: MIA-Paca2, 72 hours
In short: (§1)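 NCI-H358 (RPMI, 10% FBS) and MIA PaCa2 (DMEM, 10% FBS, 2.5% horse serum) seeded at 1000 and 800 cells/well, adhered overnight, then treated 72 h at 0.1% DMSO. ATP by Cell Titer Glo; GI50 fitted from 9 concentrations at ⅓-fold dilution versus DMSO control.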

[2] = system: phosphorylated ERK (Thr202/Tyr204) in NCI-H358 cells expressing mutant RAS(G12C); experiment: Inhibition of RAS-mediated signal transduction: phosphorylated ERK ELISA in NCI-H358 cells; type: cell-based; details: NCI-H358 cells, 2 hours of treatment, pERK normalized by Janus Green B; read-out: p-ERK IC50 (NCI H358)
[3] = In vivo pharmacokinetic evaluation in mice by intravenous injection and oral administration; details: male ICR mice
Description: In this experimental embodiment, in vivo pharmacokinetic evaluation was performed in mice by intravenous injection and oral administration.
Experimental methods and conditions: Male ICR mice were given a single dose of 1 mg/Kg (intravenous injection, solvent 5% DMSO+15% Solutol+80% saline) and 5 mg/Kg (intragastric administration, solvent 1% Tween80/2% HPMC/97% water) of the compound to be tested, respectively; 5 min, 15 min, 30 min, 1 hour, 2 hours, 4 hours, 6 hours, 8 hours, 24 hours after administration, blood was collected from the orbital vein, and each sample was collected at approximately 0.20 mL, anticoagulated with sodium heparin, placed on ice after collection, and centrifuged within 1 hour to separate the plasma for measurement. Plasma drug concentration in plasma was detected by liquid chromatography tandem mass spectrometry (LC/MS/MS) to calculate pharmacokinetic parameters.

[4] = system: NCI-H358 cells expressing KRAS-G12C; experiment: Growth inhibition of tumor cell line expressing KRAS-G12C (Cell Titer Glo), NCI-H358; type: cell-based; details: NCI-H358, 72 hours
In short: as §1

[5] = intragastric administration 5 mg/kg vs intravenous 1 mg/kg
[6] = intragastric administration 5 mg/kg, plasma
[7] = intravenous administration 1 mg/kg, plasma
[8] = mouse, po, intragastric administration 5 mg/kg, plasma
[9] = mouse, intravenous administration 1 mg/kg, plasma

Structure (SMILES)	GI50 [1] [nM]	IC50 [2] [nM]	F (%) [3, 5] [%]	AUCinf [3, 6] [ng·h/mL]	Cmax [3, 6] [ng/mL]	T1/2 [3, 6] [h]	AUCinf [3, 7] [ng·h/mL]	Cl [3, 7] [mL/min/kg]	T1/2 [3, 7] [h]	Vz [3, 7] [L/kg]	GI50 [4] [nM]	bioavailability ([3]; mouse, plasma, oral, intragastric administration 5 mg/kg vs intravenous 1 mg/kg) [%]	AUC(0-inf) [3, 8] [ng·h/mL]	half-life [3, 8] [h]	Cmax ([3]; mouse, po, intragastric administration 5 mg/kg, plasma, read-out: Cmax) [ng/mL]	AUC(0-inf) [3, 9] [ng·h/mL]	clearance [3, 9] [mL/min/kg]	half-life [3, 9] [h]	Vd ([3]; mouse, intravenous administration 1 mg/kg, plasma, read-out: Vz) [L/kg]
C=CC(=O)N1CC2COc3c(c4cc(F)c(-c5c(O)cccc5F)c(F)c4n(-c4c(C)ccnc4C(C)C)c3=O)N2CC1C (single isomer, unassigned) [Compound 3B-2]	31	6	17.01	1984.18	746.67	3.96	2333.44	7.14	5.99	3.7066	5	–	–	–	–	–	–	–	–
C=CC(=O)N1C[C@@H]2C(=O)N(CCN(C)C)c3c(c4cc(Cl)c(-c5c(F)cccc5OC)c(F)c4n(-c4c(C)ccnc4C(C)C)c3=O)N2C[C@H]1C (atropisomer, axis not shown) [Compound 27C]	3	4	20.30	526.88	133.67	1.78	519.01	32.11	1.76	4.89344	5	–	–	–	–	–	–	–	–
C=CC(=O)N1CCN(c2nc(=O)n(-c3c(C)ccnc3C(C)C)c3nc(-c4c(O)cccc4F)c(F)cc23)[C@@H](C)C1 [AMG 510]	–	–	–	–	–	–	–	–	–	–	–	17.6	155	0.57	177	176	94.6	0.26	2.16
